Results from patent publication US8604047B2, “Method and composition for treating nodulocystic and conglobate acne vulgaris” (Elorac, Inc., priority 2010, dated 2013).

Experiments:
Format in all cases: in vivo, human
[1] = Oral administration to patients with conglobate acne (acne conglobata)
Method: Capsules containing 0.05 mg by weight of dutasteride are administered twice daily for 6 months to patients with conglobate acne.
A flavored oral solution incorporating a 0.75 mg by weight of dutasteride per every 5 ml of solution is administered to young patients with acne conglobata once daily for 24 weeks.
Tablets containing 0.1 mg by weight of finasteride are administered once daily for 12 weeks to patients with acne conglobata.

[2] = Topical cream applied to skin of patients with numerous acne papules, pustules, nodules and cysts; conditions: 5% dutasteride cream, once daily for 8 weeks, most patients
Method: A 5% dutasteride cream is prepared containing water, propylene glycol, bentonite, glycerol stearate, isopropyl myristate and cellulose gum, and applied once daily to the skin of patients with numerous acne papules, pustules, nodules and cysts for 8 weeks. After 8 weeks of such treatment, most patients will have at least a 20% decrease in the number of inflammatory acne lesions.

[3] = Daily oral or topical formulations of 5AR inhibitors in male patients with nodulocystic or conglobate acne
[4] = Oral administration to patients with nodulocystic acne; conditions: most patients
Method: Tablets containing 0.5 mg by weight of finasteride are administered once daily for 12 weeks to patients with nodulocystic acne.
Caplets containing 50 mg by weight of finasteride are administered once a week for 24 weeks to patients with severe nodulocystic acne.

[5] = Topical application by patients with nodulocystic acne
From the text: Patients with active nodulocystic acne apply 0.05% by weight finasteride prepared in an alcoholic gel containing 6% polyoxyethylene lauryl ether twice daily for 12 weeks.
An aqueous/alcohol solution containing 20% by weight finasteride is applied once daily by patients with nodulocystic acne.

Question: For `C[C@]12C=CC(=O)N[C@@H]1CC[C@@H]1[C@@H]2CC[C@]2(C)[C@@H](C(=O)Nc3cc(C(F)(F)F)ccc3C(F)(F)F)CC[C@@H]12` [dutasteride], which “resolution of inflammatory nodules, cysts and sinus tracts” value ([1]; capsules 0.05 mg dutasteride, oral, twice daily for 6 months) is on record?
Answer: The value was “resolution of some of their inflammatory nodules, cysts and sinus tracts”.

Question: What about the “resolution of conglobate acne at end of treatment” value ([1]; oral solution 0.75 mg dutasteride per 5 ml, once daily for 24 weeks, young patients, some patients) of the same compound?
Answer: The value was “complete resolution of their conglobate acne”.

Question: And the “decrease in the number of inflammatory acne lesions” value [2]?
Answer: The value was no less than 20%.

Question: What about the “improvement of nodulocystic or conglobate acne” value [3] of the same compound?
Answer: The value was “dramatic improvement”.

Question: Which results are given for `CC(C)(C)NC(=O)[C@H]1CC[C@H]2[C@@H]3CC[C@H]4NC(=O)C=C[C@]4(C)[C@H]3CC[C@]12C` [finasteride]?
Answer: reduction in acne nodules and cysts ([4]; caplets 50 mg finasteride, once a week for 24 weeks, severe nodulocystic acne): marked reduction in acne nodules and cysts; activity of inflammatory acne lesions at end of treatment ([4]; tablets 0.5 mg finasteride, once daily for 12 weeks): significant decrease in the activity of their inflammatory acne lesions; old acne lesions by end of treatment ([1]; tablets 0.1 mg finasteride, oral, once daily for 12 weeks): resolved with only minor scarring; new acne lesions by end of treatment ([1]; tablets 0.1 mg finasteride, oral, once daily for 12 weeks, most patients): very few new acne lesions; nodules and cysts versus before starting treatment ([5]; 0.05% by weight finasteride alcoholic gel with 6% polyoxyethylene lauryl ether, twice daily for 12 weeks): fewer nodules and cysts; improvement in appearance after twelve weeks ([5]; aqueous/alcohol solution 20% by weight finasteride, once daily, twelve weeks, many patients): dramatic improvement in their appearance; improvement observed after two weeks ([5]; aqueous/alcohol solution 20% by weight finasteride, once daily, two weeks, most patients): some improvement; improvement of nodulocystic or conglobate acne [3]: dramatic improvement
